Experimental data published in patent publication US20220033407A1, “N-(pyridin-2-ylsulfonyl)cyclopropanecarboxamide Derivatives and their Use in the Treatment of Disease” (NOVARTIS AG, priority 2018, published 2022).

Target: T1, delF508-CFTR-HRP (Homo sapiens, UniProt P13569, DEL508-508)
T1 construct: expressed in transfected cells
Experiment: Measurement of delF508-CFTR-HRP surface expression in CFBE41o- cells (HRP luminescence);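 for DelF508-CFTR-HRP Amax %: percent efficacy relative to a reference CFTR corrector compound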
Type: cell-based
Details: for EC50: mean of at least two replicates; for Emax: CFBE41o-, read-out: DelF508-CFTR-HRP Amax %
Description: Measurement of delF508-CFTR-HRP Surface Expression in CFBE41o-Cells
This assay quantifies the cell surface expressions of the mutant CFTR channel using an extracellular HRP tag.
A cellular assay was developed to measure surface expression of horseradish peroxidase (HRP) tagged delF508-CFTR in the human bronchial epithelial immortalized CFBE41o-cell line (Phuan, P. W., et al, (2014) Molecular Pharmacology 86:42-51). Specifically, the HRP sequence was inserted into the fourth extracellular loop of delF508-CFTR and stably expressed in CFBE41o-cells. Cells were seeded in 384 well plate at a density of 5000 cells/well and incubated at 37° C. for 12 to 24 hours in medium (Gibco MEM #11095, 10% FBS, 10 mM HEPES, […], 200 μg/mL G418, 3 μg/mL Puromycin). The delF508-CFTR-HRP expression was induced with 500 ng/mL doxycycline (Sigma D-9891, dissolved in H2O and sterile filtered) in medium and the cells were incubated at 37° C. for 48 h. Old medium was removed and fresh medium was added containing 500 ng/mL doxycycline and unknown test compound at required test concentration in DMSO, not exceeding 0.5% final DMSO concentration. The highest concentration tested was 10 μM with a 10-point concentration response curve using a 3-fold dilution. After addition of compounds, the cells were incubated for 24 h at 37° C. On the final day, cells were washed four times in PBS containing 1 mM MgCl2 and 0.1 mM CaCl2. HRP-Substrate (SuperSignal ELISA Pico, Fisher #37069) 20 μl/well was added and the luminescence signal was determined (Viewlux, Perkin Elmer). Light was emitted upon addition of exogenous HRP-Substrate only when delF508-CFTR-HRP reached the cell surface and the HRP tag was accessible to the HRP-Substrate (note: HRP-Substrate cannot cross the lipid bilayer to reach delF508-CFTR-HRP misfolded within the cell).
The median activity for the lowest concentration of the compounds on each assay plate was calculated and this value was used to normalize the signal for each well on the respective plate. Three replicates at each concentrations for every compound were run to determine one EC50. The median value was determined and used to calculate compound activities as described below. Effective half maximal values (EC50) were calculated for each compound by performing logistic regression on measured dose-response data points using the equation: […]
where “Y” is the observed activity, “Bottom” is the lowest observed value, “Top” is the highest observed value, and the “Hill coefficient” gives the largest absolute value of the slope. The curve fitting is carried out by a curve fitting program implemented at GNF using Matlab (Mathworks). The dose response curves also were used to calculate Fold Change (FC) using the equation: […]
Compound efficacy relative to the reference compound 3-(6-(1-(2,2-difluorobenzo[d][1,3]dioxol-5-yl)cyclopropane-1-carboxamido)-3-methylpyridin-2-yl)benzoic acid was determined using the following formula: […]

T1 sequence (P13569 with tags, fused parts or gaps DEL508-508): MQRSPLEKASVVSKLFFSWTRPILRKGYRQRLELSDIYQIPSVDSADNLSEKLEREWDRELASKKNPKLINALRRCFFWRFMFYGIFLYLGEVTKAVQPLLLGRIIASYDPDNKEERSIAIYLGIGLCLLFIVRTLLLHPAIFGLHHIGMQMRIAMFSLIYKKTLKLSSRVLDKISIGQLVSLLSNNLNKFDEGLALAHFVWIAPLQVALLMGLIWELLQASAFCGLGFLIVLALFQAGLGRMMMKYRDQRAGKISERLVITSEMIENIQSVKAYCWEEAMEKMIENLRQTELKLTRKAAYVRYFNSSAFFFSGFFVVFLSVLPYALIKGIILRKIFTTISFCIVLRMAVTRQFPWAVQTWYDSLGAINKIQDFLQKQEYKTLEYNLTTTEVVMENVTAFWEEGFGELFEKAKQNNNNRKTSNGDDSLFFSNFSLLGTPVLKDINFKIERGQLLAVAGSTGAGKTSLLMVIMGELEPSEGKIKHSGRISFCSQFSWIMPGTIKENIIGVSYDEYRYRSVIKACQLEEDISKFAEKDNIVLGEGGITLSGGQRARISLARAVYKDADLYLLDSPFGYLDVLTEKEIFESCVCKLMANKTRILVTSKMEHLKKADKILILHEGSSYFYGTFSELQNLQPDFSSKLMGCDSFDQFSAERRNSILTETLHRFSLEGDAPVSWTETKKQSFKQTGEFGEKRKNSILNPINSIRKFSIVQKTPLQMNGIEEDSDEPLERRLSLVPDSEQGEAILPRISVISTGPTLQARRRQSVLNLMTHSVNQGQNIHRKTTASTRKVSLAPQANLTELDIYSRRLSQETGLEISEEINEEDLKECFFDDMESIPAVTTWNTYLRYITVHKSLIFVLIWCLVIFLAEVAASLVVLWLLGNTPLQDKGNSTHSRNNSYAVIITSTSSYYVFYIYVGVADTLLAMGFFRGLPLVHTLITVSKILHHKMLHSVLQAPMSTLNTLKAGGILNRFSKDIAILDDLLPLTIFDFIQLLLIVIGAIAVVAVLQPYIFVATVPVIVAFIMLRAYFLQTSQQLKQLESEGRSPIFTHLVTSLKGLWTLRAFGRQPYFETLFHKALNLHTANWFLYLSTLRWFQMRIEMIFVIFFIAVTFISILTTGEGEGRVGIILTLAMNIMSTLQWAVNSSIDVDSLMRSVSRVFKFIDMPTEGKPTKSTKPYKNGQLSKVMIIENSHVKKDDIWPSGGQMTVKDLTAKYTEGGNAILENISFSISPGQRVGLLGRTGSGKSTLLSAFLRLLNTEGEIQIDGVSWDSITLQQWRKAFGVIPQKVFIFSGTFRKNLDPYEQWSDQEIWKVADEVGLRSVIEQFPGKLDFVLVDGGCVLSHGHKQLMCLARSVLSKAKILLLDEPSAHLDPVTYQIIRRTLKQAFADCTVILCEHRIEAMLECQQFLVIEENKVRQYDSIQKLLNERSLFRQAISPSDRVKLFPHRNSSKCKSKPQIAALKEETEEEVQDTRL

| Structure (SMILES) | DelF508-CFTR-HRP Amax % [%] | EC50 [nM] | Emax [%] |
| --- | --- | --- | --- |
| Cc1ccc(C2CC2C(F)(F)F)c(OC2(C(=O)NS(=O)(=O)c3cccc(N)n3)CC2)c1 (single isomer, unassigned) [Example 1-3-1, N-((6-aminopyridin-2-yl)sulfonyl)-1-(5-methyl-2-(2-(trifluoromethyl)cyclopropyl)phenoxy)cyclopropane-1-carboxamide] | 65 | 4180 |  |
| Cc1ccc(C2CC2C(F)(F)F)c(OC2(C(=O)NS(=O)(=O)c3cccc(N)n3)CC2)c1 (single isomer, unassigned) [Example 1-3-2, N-((6-aminopyridin-2-yl)sulfonyl)-1-(5-methyl-2-(2-(trifluoromethyl)cyclopropyl)phenoxy)cyclopropane-1-carboxamide] | 260 | 2990 |  |
| Cc1ccc(C2CCCCC2)c(OC2(C(=O)NS(=O)(=O)c3cccc(N4CCC5(CCCC5N)CC4)n3)CC2)c1 (single isomer, unassigned) [Example 2-32-2, N-((6-(1-Amino-8-azaspiro[4.5]decan-8-yl)pyridin-2-yl)sulfonyl)-1-(2-cyclohexyl-5-methylphenoxy)cyclopropanecarboxamide] | 283 | 1900 |  |
| Cc1ccc(C2CCC(C)(C)OC2)c(OC2(C(=O)NS(=O)(=O)c3cccc(N4CC[C@H](O)C4)n3)CC2)c1 (single isomer, unassigned) [Example 4-24-1] | 295 | 3620 |  |
| Cc1ccc(C2CCC(C)(C)OC2)c(OC2(C(=O)NS(=O)(=O)c3cccc(N4CC[C@H](O)C4)n3)CC2)c1 (single isomer, unassigned) [Example 4-24-2] | 249 | 3000 |  |
| C[C@@]1(O)CCN(c2cccc(S(=O)(=O)NC(=O)C3(Oc4cc(Cl)ccc4C4CC5(CCC5)C4)CC3)n2)C1 (single isomer, unassigned) [Example 7-2-2] |  | 880 | 382 |
| CC1(O)CCCN(c2cccc(S(=O)(=O)NC(=O)C3(Oc4cc(Cl)ccc4C4CC5(CCC5)C4)CC3)n2)C1 (single isomer, unassigned) [Example 7-8-1, 1-(5-chloro-2-(spiro[3.3]heptan-2-yl)phenoxy)-N-((6-(3-hydroxy-3-methylpiperidin-1-yl)pyridin-2-yl)sulfonyl)cyclopropanecarboxamide] | 535.5 | 1000 |  |
| CC1(O)CCCN(c2cccc(S(=O)(=O)NC(=O)C3(Oc4cc(Cl)ccc4C4CC5(CCC5)C4)CC3)n2)C1 (single isomer, unassigned) [Example 7-8-2, 1-(5-chloro-2-(spiro[3.3]heptan-2-yl)phenoxy)-N-((6-(3-hydroxy-3-methylpiperidin-1-yl)pyridin-2-yl)sulfonyl)cyclopropanecarboxamide] | 248.0 | 1020 |  |
| CC1(O)CCN(c2cccc(S(=O)(=O)NC(=O)C3(Oc4cc(Cl)ccc4C4CC5(CCC5)C4)CCCC3)n2)C1 (single isomer, unassigned) [Example 7-18-1, 1-(5-Chloro-2-(spiro[3.3]heptan-2-yl)phenoxy)-N-((6-(3-hydroxy-3-methylpyrrolidin-1-yl)pyridin-2-yl)sulfonyl)cyclopentane-1-carboxamide] | 493.9 | 900 |  |
| CC1(O)CCN(c2cccc(S(=O)(=O)NC(=O)C3(Oc4cc(Cl)ccc4C4CC5(CCC5)C4)CCCC3)n2)C1 (single isomer, unassigned) [Example 7-18-2, 1-(5-Chloro-2-(spiro[3.3]heptan-2-yl)phenoxy)-N-((6-(3-hydroxy-3-methylpyrrolidin-1-yl)pyridin-2-yl)sulfonyl)cyclopentane-1-carboxamide] | 371.9 | 1670 |  |
| CC(C)(C)C1CCC(Nc2ccc(Cl)cc2OC2(C(=O)NS(=O)(=O)c3cccc(N4CC[C@H](O)C4)n3)CC2)CC1 (single isomer, unassigned) [Example 9-5-1] | 93.6 | 960 |  |
| CC(C)(C)C1CCC(Nc2ccc(Cl)cc2OC2(C(=O)NS(=O)(=O)c3cccc(N4CC[C@H](O)C4)n3)CC2)CC1 (single isomer, unassigned) [Example 9-5-2] | 678.4 | 330 |  |
| CC1(C)CCN(c2ccc(Cl)cc2OC2(C(=O)NS(=O)(=O)c3cccc(N4CCC(C)(O)C4)n3)CC2)CC1 (single isomer, unassigned) [Example 9-39-1, 1-(5-Chloro-2-(4,4-dimethylpiperidin-1-yl)phenoxy)-N-((6-(3-hydroxy-3-methylpyrrolidin-1-yl)pyridin-2-yl)sulfonyl)cyclopropane-1-carboxamide] | 726.4 | 570 |  |
| CC1(C)CCN(c2ccc(Cl)cc2OC2(C(=O)NS(=O)(=O)c3cccc(N4CCC(C)(O)C4)n3)CC2)CC1 (single isomer, unassigned) [Example 9-39-2, 1-(5-Chloro-2-(4,4-dimethylpiperidin-1-yl)phenoxy)-N-((6-(3-hydroxy-3-methylpyrrolidin-1-yl)pyridin-2-yl)sulfonyl)cyclopropane-1-carboxamide] | 493.9 | 840 |  |
| CC1(C)CCN(c2ccc(Cl)cc2OC2(C(=O)NS(=O)(=O)c3cccc(N4CCCC(C)(O)C4)n3)CC2)CC1 (single isomer, unassigned) [Example 9-43-1, 1-(5-Chloro-2-(4,4-dimethylpiperidin-1-yl)phenoxy)-N-((6-(3-hydroxy-3-methylpiperidin-1-yl)pyridin-2-yl)sulfonyl)cyclopropane-1-carboxamide] | 545.9 | 1170 |  |
| CC1(C)CCN(c2ccc(Cl)cc2OC2(C(=O)NS(=O)(=O)c3cccc(N4CCCC(C)(O)C4)n3)CC2)CC1 (single isomer, unassigned) [Example 9-43-2, 1-(5-Chloro-2-(4,4-dimethylpiperidin-1-yl)phenoxy)-N-((6-(3-hydroxy-3-methylpiperidin-1-yl)pyridin-2-yl)sulfonyl)cyclopropane-1-carboxamide] | 367.4 | 1920 |  |
| Cc1ccc(C2CCC(C)(C)OC2)c(OC2(C(=O)NS(=O)(=O)c3cccc(N4CCC(O)(C(F)(F)F)CC4)n3)CC2)c1 (single isomer, unassigned) [Example 11-2-1, 1-(2-(6,6-Dimethyltetrahydro-2H-pyran-3-yl)-5-methylphenoxy)-N-((6-(4-hydroxy-4-(trifluoromethyl)piperidin-1-yl)pyridin-2-yl)sulfonyl)cyclopropane-1-carboxamide] | 473.8 | 1860 |  |
| Cc1ccc(C2CCC3(CCC3)OC2)c(OC2(C(=O)NS(=O)(=O)c3cccc(N4CCC(C)(O)CC4)n3)CC2)c1 (single isomer, unassigned) [Example 11-4-2, N-((6-(4-hydroxy-4-methylpiperidin-1-yl)pyridin-2-yl)sulfonyl)-1-(5-methyl-2-(5-oxaspiro[3.5]nonan-7-yl)phenoxy)cyclopropane-1-carboxamide] | 242.9 | 2650 |  |
| Cc1ccc(C2CCCCC2)c(OC2(C(=O)NS(=O)(=O)c3cccc(N4CCCC(N)C4)n3)CC2)c1 (stereo not drawn) [Example 2-13, N-((6-(3-Aminopiperidin-1-yl)pyridin-2-yl)sulfonyl)-1-(2-cyclohexyl-5-methylphenoxy)cyclopropanecarboxamide] |  | 4610 | 119 |
| COC(=O)C(C)(C)CN1CCN(c2cccc(S(=O)(=O)NC(=O)C3(Oc4cc(C)ccc4C4CCCCC4)CC3)n2)CC1 [Example 2-38, Methyl 3-(4-(6-(N-(1-(2-cyclohexyl-5-methylphenoxy)cyclopropanecarbonyl)sulfamoyl)pyridin-2-yl)piperazin-1-yl)-2,2-dimethylpropanoate] |  | 360 | 293 |
| Cc1ccc(C2CCCCC2)c(OC2(C(=O)NS(=O)(=O)c3cccc(N4CCC(NC(=O)OC(C)(C)C)CC4)n3)CC2)c1 [Example 2-43, Tert-butyl (1-(6-(N-(1-(2-cyclohexyl-5-methylphenoxy)cyclopropanecarbonyl)sulfamoyl)pyridin-2-yl)piperidin-4-yl)carbamate] |  | 1120 | 556 |
